Earlier results on one compound are cited in patent publication US12357619B2, “Noradrenergic and specific serotonergic anxiolytic and antidepressant, method for the production and use thereof” (ALLA CHEM, LLC, priority 2020, dated 2025).

In this data set the target is T1, Serotonin 5-HT2C (Homo sapiens, UniProt P28335).
T1 sequence (P28335 33-458): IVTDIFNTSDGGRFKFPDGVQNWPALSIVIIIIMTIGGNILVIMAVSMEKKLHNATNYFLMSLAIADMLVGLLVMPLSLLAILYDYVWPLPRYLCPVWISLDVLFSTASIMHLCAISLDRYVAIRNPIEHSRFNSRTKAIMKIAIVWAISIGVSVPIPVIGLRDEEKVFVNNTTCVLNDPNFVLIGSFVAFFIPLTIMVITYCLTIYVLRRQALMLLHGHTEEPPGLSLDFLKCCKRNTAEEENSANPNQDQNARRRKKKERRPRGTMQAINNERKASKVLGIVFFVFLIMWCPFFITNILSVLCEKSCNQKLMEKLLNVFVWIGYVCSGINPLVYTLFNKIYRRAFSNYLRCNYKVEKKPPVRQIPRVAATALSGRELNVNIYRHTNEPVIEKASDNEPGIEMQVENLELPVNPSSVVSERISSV
The note with it: from en.wikipedia.org/wiki/Mirtazapine; cited from earlier work.

The Ki is the equilibrium dissociation constant of an inhibitor or competing ligand from its target. As for `CN1CCN2c3ncccc3Cc3ccccc3C2C1` (stereo not shown) [Mirtazapine], the Ki was 8.9 to 39 nM.
